According to paper PMC6801448, “The Antioxidant and Antiproliferative Activities of 1,2,3-Triazolyl-L-Ascorbic Acid Derivatives” (International Journal of Molecular Sciences, 2019):
Read-outs that look alike come from different tables or passages of the source.

Legend:
[1] = test system: A549 (lung adenocarcinoma); assay: MTT proliferation assay, A549; type: cell-based; conditions: Homo sapiens, 72 h
Protocol: (§1) Human tumor cell lines HeLa (cervical carcinoma), SW620 (colorectal adenocarcinoma, metastatic), A549 (lung adenocarcinoma), MCF−7 (breast adenocarcinoma), CFPAC-1 (pancreatic adenocarcinoma, metastatic), HCT-116 (colorectal carcinoma), and HepG2 (hepatocellular carcinoma), and normal cell lines HFF-1 (foreskin fibroblasts) and WI-38 (immortalized human lung fibroblast), were from the US American Type Culture Collection (ATCC, Manassas, VA, USA). Cells were cultured in a liquid nutrient medium (Dulbecco’s Modified Eagle Medium, LONZA, Basel, Switzerland) supplemented with 10% fetal bovine serum (FBS, Gibco, Grand Island, NY, USA), 2 mM L-glutamine (GIBCO, Grand Island, NY, USA), 100 μg/mL penicillin, and 100 μg/mL streptomycin (LONZA, Basel, Switzerland), in an incubator (NÜVE, Ankara, Turkey), at a humid atmosphere with 5% CO2 at 37 °C. Trypsin/EDTA Solution (Lonza, Basel, Switzerland), was used for cell passaging and cell detachment.
(§2) Adherent cells were seeded on 96 well microtiter plates (Falcon, New York, NY, USA) at a seeding density of 5000 cells per well, added in 150 μL of cell suspension in a nutrient medium. 24 h after seeding, cells were treated with compound 4b–4g, 4i, 4k–4t, 4v, 7c–7g, and 7i–7q dilutions in the range of 0.01 μM to 100 μM. L-ascoric acid (Sigma Aldrich, Darmstadt, Germany) and Carboxyamidotriazole (Sigma Aldrich, Darmstadt, Germany) were used as control compounds. Incubation of the cells with the compounds were performed for 72 h in a 5% CO2, in humid atmosphere at 37 °C. After incubation, nutrient medium was removed and 40 μL of the MTT reagent ([…]-2,5-diphenyltetrazole bromide (Invitrogen, Carlsbad, CA, USA) was added to each well. 3 h after incubation, 160 μL of DMSO (VWR CHEMICALS, Radnor, PA, USA) were added to each well to dissolve the crystals of purple formazane. The absorbance was measured at 570 nm (TECAN SUNRISE Microtiter plate reader (Männedorf, Switzerland). The experimentally measured optical densities (OD) were converted to the PG (percentage of growth), using the formulas according to the protocol assumed by NIH (National Institute of Health). The IC50 values (concentration causing 50% cell growth inhibition) for each compound were calculated by regression analysis of the survival count curve of the concentrations of the tested compounds. The results were processed in Excel 2010 (Microsoft, Redmond, WA, USA).

[2] = test system: CFPAC-1 (ductal pancreatic adenocarcinoma); assay: MTT proliferation assay, CFPAC-1; type: cell-based; conditions: Homo sapiens, 72 h
Protocol: as §1, §2

[3] = test system: HCT-116 (colorectal carcinoma); assay: MTT proliferation assay, HCT-116; type: cell-based; conditions: Homo sapiens, 72 h
Protocol: as §1, §2

[4] = test system: HeLa (cervical carcinoma); assay: MTT proliferation assay, HeLa; type: cell-based; conditions: Homo sapiens, 72 h
Protocol: as §1, §2

[5] = test system: HepG2 (hepatocellular carcinoma); assay: MTT proliferation assay, HepG2; type: cell-based; conditions: Homo sapiens, 72 h
Protocol: as §1, §2

[6] = test system: MCF-7 (breast adenocarcinoma); assay: MTT proliferation assay, MCF-7; type: cell-based, Human; conditions: Homo sapiens, MCF7; 72 h, MTT
Protocol: as §1, §2

[7] = test system: SW620 (colorectal adenocarcinoma, metastatic); assay: MTT proliferation assay, SW620; type: cell-based; conditions: Homo sapiens, SW-620, 72 h
Protocol: as §1, §2

[8] = test system: HFF-1 (foreskin fibroblasts); assay: MTT proliferation assay, HFF-1; type: cell-based; conditions: Homo sapiens, 72 h, normal foreskin fibroblasts
Protocol: as §1, §2

[9] = test system: tested cell lines (A549, CFPAC-1, HCT-116, HeLa, HepG2, MCF-7, SW620, WI-38, HFF-1); assay: MTT proliferation assay, whole tested cell panel; type: cell-based, Human; conditions: 0.01 µM to 100 µM, 72 h
Protocol: The C-6 substituted 1,2,3-triazole derivatives of L-ASA within the C5-OH group ([…], 4i, 4k−4t, and 4v) and with the C4=C5 double bond (7c−7g and 7i−7q) were evaluated against seven malignant tumor cell lines: lung adenocarcinoma (A549), ductal pancreatic adenocarcinoma (CFPAC-1), colorectal carcinoma (HCT-116), cervical carcinoma (HeLa), hepatocellular carcinoma (HepG2), breast adenocarcinoma (MCF-7), colorectal adenocarcinoma, and metastatic (SW620); as well as normal cell lines: lung fibroblasts (WI-38) and foreskin fibroblasts (HFF-1) (Table 3, Table S1, Supplementary Information). L-ASA was used as a positive control, and carboxyamidotriazole, a known antiproliferative agent that inhibits tumor cell growth, invasion, and metastasis, and 5-fluorouracil (5-FU), were used as reference compounds.
as §1, §2

[10] = DPPH radical scavenging assay; type: biochemical
Protocol: Likewise, L-ASA, the 1,2,3-triazole L-ASA derivatives with free C2-OH and C3-OH groups were expected to be potent antioxidants. Therefore, they were tested as radical scavengers by reaction with the stable free radical 2,2-diphenyl-1-picrylhydrazyl (DPPH^•).
Antioxidant capacity of selected compounds was assessed by 2,2-diphenyl-1-picrylhydrazyl assay (DPPH, Sigma Aldrich, Darmstadt, Germany), in which the antioxidant activity of compounds is measured by the reaction between a stable radical of 1,1-diphenyl-2-picylhydrazil (DPPH^•) and a selected compound according to the manufacturer recommendations. Briefly, compounds 4b–4e, 4f–4h, 4k, 4l, 4o, 4p–4s, 4t, 4v, 7c–7f, 7i–7n, 7q, 7p, and 7o were tested at 0.06, 0.12, 0.18, 0.23, 0.25, and 0.28 mM. L-ascorbic acid was used as the reference compound. Absorbance was measured 5 and 10 min after incubation of the compounds with the DPPH reagent. The reduction of DPPH with selected compounds was monitored by measuring the absorbance at a wavelength of 517 nm on the monochromator (Infinite M200 PRO, TECAN, Männedorf, Switzerland).

WI-38 (lung fibroblasts) = assay: MTT proliferation assay, WI-38; type: cell-based; conditions: Homo sapiens, 72 h, normal lung fibroblasts
Protocol: as §1, §2

[11] = 5 min treatment, read-out: IC50 of DPPH• inhibition, Treatm. 5 min
[12] = 10 min treatment, read-out: IC50 of DPPH• inhibition, Treatm. 10 min

Row | IC50 [1] | IC50 [2] | IC50 [3] | IC50 [4] | IC50 [5] | IC50 [6] | IC50 [7] | IC50 [10, 11] | IC50 [10, 12] | melting point | SMILES | IC50 [8] | antiproliferative / cytotoxic effect on the tested cell lines (in words) [9] | IC50 (WI-38 (lung fibroblasts))
1 | 51.6 µM | 41.6 µM | 19.9 µM | 31.8 µM | 40.1 µM | 14.7 µM | 41.3 µM | – | – | – | NC(=O)c1nnn(Cc2cc(Cl)c(C(=O)c3ccc(Cl)cc3)c(Cl)c2)c1N [Carboxyamidotriazole, carboxyamidotriazole, reference compound] | 32.6 µM | non-selective, moderate antiproliferative effect | –
2 | > 100 µM | > 100 µM | > 100 µM | > 100 µM | > 100 µM | > 100 µM | > 100 µM | 130 µM | 130 µM | 219 to 221 °C | O=C1O[C@H]([C@@H](O)Cn2ccnn2)C(O)=C1O [Compound 4b, 6-deoxy-6-(1,2,3-triazol-1-yl)-L-ascorbic acid] | – | not cytotoxic | > 100 µM
3 | 81.7 µM | 75.8 µM | 64.8 µM | 56.8 µM | 95.3 µM | 39.8 µM | 92 µM | 270 ± 10 µM | 270 µM | 189 to 191 °C | O=C1O[C@H]([C@@H](O)Cn2cc(-c3cc(F)cc(F)c3)nn2)C(O)=C1O [Compound 4d, 6-deoxy-6-[4-(3,5-difluorophenyl)-1,2,3-triazol-1-yl]-L-ascorbic acid] | 0.12 µM | nonspecific cytostatic effect | > 100 µM
4 | > 100 µM | > 100 µM | > 100 µM | > 100 µM | > 100 µM | > 100 µM | > 100 µM | 200 ± 20 µM | 140 ± 10 µM | 152 to 154 °C | Cc1ccc(-c2cn(C[C@H](O)[C@H]3OC(=O)C(O)=C3O)nn2)cc1 [Compound 4f, 6-deoxy-6-[4-tolyl-1,2,3-triazol-1-yl]-L-ascorbic acid] | 69.3 µM | did not show any cytotoxic effects | > 100 µM
5 | > 100 µM | > 100 µM | > 100 µM | > 100 µM | > 100 µM | > 100 µM | > 100 µM | 190 ± 10 µM | 190 ± 10 µM | – | COc1ccc(-c2cn(C[C@H](O)[C@H]3OC(=O)C(O)=C3O)nn2)cc1 [Compound 4g, 6-deoxy-6-[4-methoxyphenyl-1,2,3-triazol-1-yl]-L-ascorbic acid] | > 100 µM | did not show any cytotoxic effects | > 100 µM
